These results are taken from US20140120595A1 (priority 2008, published 2014).

The structures appear in SMILES notation. Converted amounts (≈) assume the structure as drawn.

The assay deals with E. coli K12. The assay can be described thus: microbe, parasite or virus in culture. The note with it: Escherichia coli, K12, 24 h, read-out: minimum inhibitory concentration (MIC).

Method: Overnight cultures of E. coli K12 were started in 5 mL LB containing no antibiotic 12-16 hours before the experiment was performed. LB broth was inoculated using aseptic technique. The culture was incubated overnight in a shaking incubator at 37 C.
The next morning 10 mL of M9 was inoculated with 100 μL of cells from the overnight culture. The tube was inverted to mix the cells prior to incubation at 37 C in the shaking incubator. While the cells were growing 96 well plates were prepared for inoculation.
A solution of concentrated M9 was made by combining 4 mL of 5×M9 salts, 40 μL of 20% glucose, 40 μL 1M MgSO4, and 2 μL of 1M CaCl2.
The plate was loaded as follows: 45 μL of concentrated M9 mixture was added to each well containing the compound concentrations and the following dilutions were performed:
Controls were prepared and loaded onto the plate as follows: 135 μL of H2O was added to positive control wells. 45 μL of the concentrated M9 mixture was added to each positive control well. 200 μL of water was added to each negative control well.
The OD600 of the cells from the overnight culture that was inoculated into M9 was checked using the spectrophotometer. The final OD600 of the cells was between 0.195 and 0.200. To achieve a final OD within this range the spectrophotometer was blanked with water. […]

Take `OCCCCO` [1,4-BDO, 1,4-butanediol]: the MIC came to 50 mg/mL (≈ 555 mM).
